According to ChEMBL document CHEMBL3046346, “Synthesis and analgesic, anti-inflammatory activities of 3-(3-methoxyphenyl)-2-substituted amino-quinazolin-4(3H)-ones” (Med Chem Res, 2011):

Columns and labels:
Mus musculus [1] = assay: […] activity in Mus musculus Wistar albino (mouse) at 10 mg/kg, po after 1 hr by tail-flick test; assay type: functional
Rattus norvegicus [2] = assay: Anti-inflammatory activity in Rattus norvegicus (rat) assessed as inhibition of carrageenan-induced paw edema at 10 mg/kg, po measured at 3 hr; assay type: functional
Rattus norvegicus [3] = assay: Anti-inflammatory activity in Rattus norvegicus (rat) assessed as inhibition of carrageenan-induced paw edema at 10 mg/kg, po measured at 1 hr; assay type: functional
Rattus norvegicus [4] = assay: Anti-inflammatory activity in Rattus norvegicus (rat) assessed as inhibition of carrageenan-induced paw edema at 10 mg/kg, po measured at 2 hr; assay type: functional
Mus musculus [5] = assay: […] activity in Mus musculus Wistar albino (mouse) at 10 mg/kg, po after 3 hr by tail-flick test; assay type: functional
Rattus norvegicus [6] = assay: Anti-inflammatory activity in Rattus norvegicus (rat) assessed as inhibition of carrageenan-induced paw edema at 10 mg/kg, po measured at 30 min; assay type: functional; conditions: 0.5 h
Mus musculus [7] = assay: […] activity in Mus musculus Wistar albino (mouse) at 10 mg/kg, po after 2 hr by tail-flick test; assay type: functional
Mus musculus [8] = assay: […] activity in Mus musculus Wistar albino (mouse) at 10 mg/kg, po after 30 min by tail-flick test; assay type: functional
Rattus norvegicus [9] = assay: Gastrointestinal toxicity in fasted Rattus norvegicus Wistar albino (rat) assessed as ulcer index at 20 mg/kg, ip measured after 4 hr; assay type: organism-based; set-up: dose 20 mg/kg, route intraperitoneal; conditions: in vivo

With `O=C([O-])Cc1ccccc1Nc1c(Cl)cccc1Cl.[Na+]` [DICLOFENAC SODIUM] the Activity (Mus musculus [1]) was 43%, the inhibition in vivo at 10 mg/kg (Rattus norvegicus [2]) was 33% and the inhibition in vivo at 10 mg/kg (Rattus norvegicus [3]) was 38%. For the same molecule, the inhibition in vivo at 10 mg/kg (Rattus norvegicus [4]) was 39%, the Activity (Mus musculus [5]) was 33% and the inhibition in vivo at 10 mg/kg (Rattus norvegicus [6]) was 32%. For the same molecule, the Activity (Mus musculus [7]) was 45%, the Activity (Mus musculus [8]) was 37% and the UI (Rattus norvegicus [9]) was 1.65.

For `COc1cccc(-n2c(NN=C3CCCCC3)nc3ccccc3c2=O)c1`, the Activity (Mus musculus [1]) was 49%, the inhibition in vivo at 10 mg/kg (Rattus norvegicus [2]) was 31% and the inhibition in vivo at 10 mg/kg (Rattus norvegicus [3]) was 40%. It also gave an inhibition in vivo at 10 mg/kg (Rattus norvegicus [4]) of 43%, an Activity (Mus musculus [5]) of 38% and an inhibition in vivo at 10 mg/kg (Rattus norvegicus [6]) of 37%. It also gave an Activity (Mus musculus [7]) of 53%, an Activity (Mus musculus [8]) of 46% and a UI (Rattus norvegicus [9]) of 0.61.

`CC/C(C)=N/Nc1nc2ccccc2c(=O)n1-c1cccc(OC)c1` was tested, and the Activity (Mus musculus [1]) was 58%, the inhibition in vivo at 10 mg/kg (Rattus norvegicus [2]) was 32% and the inhibition in vivo at 10 mg/kg (Rattus norvegicus [3]) was 45%. The inhibition in vivo at 10 mg/kg (Rattus norvegicus [4]) was 46%, the Activity (Mus musculus [5]) was 37% and the inhibition in vivo at 10 mg/kg (Rattus norvegicus [6]) was 41%. The Activity (Mus musculus [7]) was 61%, the Activity (Mus musculus [8]) was 53% and the UI (Rattus norvegicus [9]) was 0.53.

With `CCC/C(C)=N/Nc1nc2ccccc2c(=O)n1-c1cccc(OC)c1` the Activity (Mus musculus [1]) was 64%, the inhibition in vivo at 10 mg/kg (Rattus norvegicus [2]) was 34% and the inhibition in vivo at 10 mg/kg (Rattus norvegicus [3]) was 47%. The inhibition in vivo at 10 mg/kg (Rattus norvegicus [4]) was 49%, the Activity (Mus musculus [5]) was 41% and the inhibition in vivo at 10 mg/kg (Rattus norvegicus [6]) was 42%. The Activity (Mus musculus [7]) was 68%, the Activity (Mus musculus [8]) was 57% and the UI (Rattus norvegicus [9]) was 0.58.

`COc1cccc(-n2c(NN=C(c3ccccc3)c3ccccc3)nc3ccccc3c2=O)c1` gave an Activity (Mus musculus [1]) of 46%, an inhibition in vivo at 10 mg/kg (Rattus norvegicus [2]) of 30% and an inhibition in vivo at 10 mg/kg (Rattus norvegicus [3]) of 38%. It also gave an inhibition in vivo at 10 mg/kg (Rattus norvegicus [4]) of 41%, an Activity (Mus musculus [5]) of 36% and an inhibition in vivo at 10 mg/kg (Rattus norvegicus [6]) of 33%. For the same molecule, the Activity (Mus musculus [7]) was 49% and the Activity (Mus musculus [8]) was 41%.

For `COc1cccc(-n2c(N/N=C\c3ccccc3C)nc3ccccc3c2=O)c1`, the Activity (Mus musculus [1]) was 45%, the inhibition in vivo at 10 mg/kg (Rattus norvegicus [2]) was 30% and the inhibition in vivo at 10 mg/kg (Rattus norvegicus [3]) was 41%. The inhibition in vivo at 10 mg/kg (Rattus norvegicus [4]) was 42%, the Activity (Mus musculus [5]) was 34% and the inhibition in vivo at 10 mg/kg (Rattus norvegicus [6]) was 36%. It also gave an Activity (Mus musculus [7]) of 51% and an Activity (Mus musculus [8]) of 39%.

With `COc1cccc(-n2c(N/N=C(\C)c3ccccc3)nc3ccccc3c2=O)c1` the Activity (Mus musculus [1]) was 46%, the inhibition in vivo at 10 mg/kg (Rattus norvegicus [2]) was 32% and the inhibition in vivo at 10 mg/kg (Rattus norvegicus [3]) was 42%. For the same molecule, the inhibition in vivo at 10 mg/kg (Rattus norvegicus [4]) was 45%, the Activity (Mus musculus [5]) was 36% and the inhibition in vivo at 10 mg/kg (Rattus norvegicus [6]) was 39%. The Activity (Mus musculus [7]) was 51%, the Activity (Mus musculus [8]) was 44% and the UI (Rattus norvegicus [9]) was 0.62.

`COc1cccc(-n2c(N/N=C\c3ccc(C)cc3)nc3ccccc3c2=O)c1` gave an Activity (Mus musculus [1]) of 48%, an inhibition in vivo at 10 mg/kg (Rattus norvegicus [2]) of 28% and an inhibition in vivo at 10 mg/kg (Rattus norvegicus [3]) of 35%. It also gave an inhibition in vivo at 10 mg/kg (Rattus norvegicus [4]) of 40%, an Activity (Mus musculus [5]) of 37% and an inhibition in vivo at 10 mg/kg (Rattus norvegicus [6]) of 32%. The Activity (Mus musculus [7]) was 50% and the Activity (Mus musculus [8]) was 44%.

Work on `COc1ccc(/C=N\Nc2nc3ccccc3c(=O)n2-c2cccc(OC)c2)cc1` yielded an Activity (Mus musculus [1]) of 37%, an inhibition in vivo at 10 mg/kg (Rattus norvegicus [2]) of 27% and an inhibition in vivo at 10 mg/kg (Rattus norvegicus [3]) of 35%. For the same molecule, the inhibition in vivo at 10 mg/kg (Rattus norvegicus [4]) was 37%, the Activity (Mus musculus [5]) was 30% and the inhibition in vivo at 10 mg/kg (Rattus norvegicus [6]) was 29%. The Activity (Mus musculus [7]) was 41% and the Activity (Mus musculus [8]) was 30%.

`COc1cccc(-n2c(N/N=C\c3ccc([N+](=O)[O-])cc3)nc3ccccc3c2=O)c1` was tested, and the Activity (Mus musculus [1]) was 40%, the inhibition in vivo at 10 mg/kg (Rattus norvegicus [2]) was 29% and the inhibition in vivo at 10 mg/kg (Rattus norvegicus [3]) was 35%. For the same molecule, the inhibition in vivo at 10 mg/kg (Rattus norvegicus [4]) was 37%, the Activity (Mus musculus [5]) was 36% and the inhibition in vivo at 10 mg/kg (Rattus norvegicus [6]) was 33%. The Activity (Mus musculus [7]) was 42% and the Activity (Mus musculus [8]) was 35%.

For `COc1cccc(-n2c(N/N=C\c3ccccc3)nc3ccccc3c2=O)c1`, the Activity (Mus musculus [1]) was 47%, the inhibition in vivo at 10 mg/kg (Rattus norvegicus [2]) was 31% and the inhibition in vivo at 10 mg/kg (Rattus norvegicus [3]) was 38%. It also gave an inhibition in vivo at 10 mg/kg (Rattus norvegicus [4]) of 47%, an Activity (Mus musculus [5]) of 35% and an inhibition in vivo at 10 mg/kg (Rattus norvegicus [6]) of 35%. For the same molecule, the Activity (Mus musculus [7]) was 47% and the Activity (Mus musculus [8]) was 40%.

For `COc1cccc(-n2c(N/N=C\c3ccccc3[N+](=O)[O-])nc3ccccc3c2=O)c1`, the Activity (Mus musculus [1]) was 41%, the inhibition in vivo at 10 mg/kg (Rattus norvegicus [2]) was 27% and the inhibition in vivo at 10 mg/kg (Rattus norvegicus [3]) was 35%. For the same molecule, the inhibition in vivo at 10 mg/kg (Rattus norvegicus [4]) was 38%, the Activity (Mus musculus [5]) was 36% and the inhibition in vivo at 10 mg/kg (Rattus norvegicus [6]) was 35%. For the same molecule, the Activity (Mus musculus [7]) was 45% and the Activity (Mus musculus [8]) was 35%.

`COc1cccc(-n2c(N/N=C\c3ccc(Cl)cc3)nc3ccccc3c2=O)c1` gave an Activity (Mus musculus [1]) of 40%, an inhibition in vivo at 10 mg/kg (Rattus norvegicus [2]) of 27% and an inhibition in vivo at 10 mg/kg (Rattus norvegicus [3]) of 36%. It also gave an inhibition in vivo at 10 mg/kg (Rattus norvegicus [4]) of 37%, an Activity (Mus musculus [5]) of 34% and an inhibition in vivo at 10 mg/kg (Rattus norvegicus [6]) of 33%. The Activity (Mus musculus [7]) was 42% and the Activity (Mus musculus [8]) was 34%.

Work on `CCC(CC)=NNc1nc2ccccc2c(=O)n1-c1cccc(OC)c1` yielded an Activity (Mus musculus [1]) of 61%, an inhibition in vivo at 10 mg/kg (Rattus norvegicus [2]) of 34% and an inhibition in vivo at 10 mg/kg (Rattus norvegicus [3]) of 48%. For the same molecule, the inhibition in vivo at 10 mg/kg (Rattus norvegicus [4]) was 53%, the Activity (Mus musculus [5]) was 38% and the inhibition in vivo at 10 mg/kg (Rattus norvegicus [6]) was 45%. For the same molecule, the Activity (Mus musculus [7]) was 66%, the Activity (Mus musculus [8]) was 56% and the UI (Rattus norvegicus [9]) was 0.51.

Work on `COc1cccc(-n2c(N/N=C3/C(=O)Nc4ccccc43)nc3ccccc3c2=O)c1` yielded an Activity (Mus musculus [1]) of 43%, an inhibition in vivo at 10 mg/kg (Rattus norvegicus [2]) of 31% and an inhibition in vivo at 10 mg/kg (Rattus norvegicus [3]) of 37%. It also gave an inhibition in vivo at 10 mg/kg (Rattus norvegicus [4]) of 40%, an Activity (Mus musculus [5]) of 36% and an inhibition in vivo at 10 mg/kg (Rattus norvegicus [6]) of 35%. For the same molecule, the Activity (Mus musculus [7]) was 46% and the Activity (Mus musculus [8]) was 39%.

In the case of `CC(=O)Oc1ccccc1C(=O)O` [ASPIRIN], the UI (Rattus norvegicus [9]) is reported as 1.73.

In the case of `COc1cccc(-n2c(N/N=C\c3ccccc3Cl)nc3ccccc3c2=O)c1`, the Activity (Mus musculus [1]) is reported as 39%, the inhibition in vivo at 10 mg/kg (Rattus norvegicus [2]) is reported as 27% and the inhibition in vivo at 10 mg/kg (Rattus norvegicus [3]) is reported as 33%. It also gave an inhibition in vivo at 10 mg/kg (Rattus norvegicus [4]) of 37%, an Activity (Mus musculus [5]) of 33% and an inhibition in vivo at 10 mg/kg (Rattus norvegicus [6]) of 29%. It also gave an Activity (Mus musculus [7]) of 42% and an Activity (Mus musculus [8]) of 32%.
